According to BindingDB's records for doi:10.1016/j.bmcl.2018.01.029 (Presidio Pharmaceuticals, 2018):

Tests used:
[1] = Inhibition of HCV genotype 1a NS5A polymerase L31V/Y93H double mutant infected in human HuH7 replicon cells by luciferase reporter gene assay
[2] = Inhibition of HCV genotype 1b NS5B polymerase infected in human HuH7 replicon cells by luciferase reporter gene assay
[3] = Inhibition of HCV genotype 4a NS5B polymerase infected in human HuH7 replicon cells by luciferase reporter gene assay
[4] = Inhibition of HCV genotype 3a NS5B polymerase infected in human HuH7 replicon cells by luciferase reporter gene assay
[5] = Inhibition of HCV genotype 2a NS5B polymerase infected in human HuH7 replicon cells by luciferase reporter gene assay
[6] = Inhibition of HCV genotype 1a NS5A polymerase infected in human HuH7 replicon cells by luciferase reporter gene assay

Row | Compound | EC50 [1] | EC50 [2] | EC50 [6] | also measured
1 | CS(=O)(=O)N1CCCCc2cc3c(C4=NCCN4)c(-c4ccc(F)cc4)oc3cc21 | > 2000 nM | – | – | –
2 | CNC(=O)c1c(-c2ccc(F)cc2)oc2cc3c(cc12)CCCCCCN3S(C)(=O)=O | – | 26 nM | – | –
3 | CNC(=O)c1c(-c2ccc(F)cc2)oc2cc3c(cc12)C(C)OCC(CO)N3S(C)(=O)=O (configuration not stated) | – | 33 nM | 40 nM | EC50 [3]: 117 nM; EC50 [4]: 53 nM; EC50 [5]: 141 nM
4 | CNC(=O)c1c(-c2ccc(F)cc2)oc2cc3c(cc12)CCN3S(C)(=O)=O | – | 304 nM | – | –
5 | CNC(=O)c1c(-c2ccc(F)cc2)oc2cc3c(cc12)[C@@H](C)NC(=O)CN3S(C)(=O)=O | – | 586 nM | 1800 nM | –
6 | CNC(=O)c1c(-c2ccccc2F)oc2cc3c(cc12)C(C)CCCN3S(C)(=O)=O (configuration not stated) | 11 nM | 7 nM | – | –
7 | CNC(=O)c1c(-c2ccc(F)cc2)oc2cc3c(cc12)C(C)OC(CS(C)(=O)=O)CN3S(C)(=O)=O (configuration not stated) | – | 7 nM | 9 nM | EC50 [3]: 17 nM; EC50 [4]: 17 nM; EC50 [5]: 64 nM
8 | CNC(=O)c1c(-c2ccc(F)cc2)oc2cc3c(cc12)CCCN3S(C)(=O)=O | – | 451 nM | – | –
9 | CNC(=O)c1c(-c2ccc(F)cc2)oc2cc3c(cc12)[C@@H]1C[C@@H]1CCN3S(C)(=O)=O | 25 nM | 7 nM | – | –
10 | CNC(=O)c1c(-c2ccc(F)cc2)oc2cc3c(cc12)C(C)=CCCN3S(C)(=O)=O | 70 nM | 16 nM | – | –
11 | CNC(=O)c1c(-c2ccc(F)cc2)nc2cc3c(cn12)C(C)CCCN3S(C)(=O)=O (configuration not stated) | 801 nM | 182 nM | – | –
12 | CNC(=O)c1c(-c2ccc(F)cc2)oc2cc3c(cc12)CCCCCN3S(C)(=O)=O | – | 5 nM | – | –
13 | CNC(=O)c1c(-c2ccc(F)cc2)oc2cc3c(cc12)C(C)NCCN3S(C)(=O)=O (configuration not stated) | 265 nM | 43 nM | – | –
14 | CNC(=O)c1c(-c2ccc(F)cc2)oc2cc3c(cc12)CCCCN3S(C)(=O)=O | 83 nM | 17 nM | – | –
15 | CNC(=O)c1c(-c2ccc(F)cc2)oc2cc3c(cc12)[C@H](C)O[C@@H](CS(C)(=O)=O)CN3S(C)(=O)=O | – | 13 nM | 57 nM | –
16 | CNC(=O)c1c(-c2ccc(F)cc2)oc2cc3c(cc12)C(C)n1nncc1CN3S(C)(=O)=O (configuration not stated) | – | 6 nM | – | –
17 | CNC(=O)c1c(-c2ccc(F)cc2)oc2cc3c(cc12)C(C)N(C)C(=O)CN3S(C)(=O)=O (configuration not stated) | – | 17 nM | 180 nM | –

Row | Compound | EC50 [1] | EC50 [2] | EC50 [6] | also measured
18 | CNC(=O)c1c(-c2ccc(F)cc2)oc2cc3c(cc12)C(C)N(C)CCN3S(C)(=O)=O (configuration not stated) | 50 nM | 14 nM | – | –
19 | CNC(=O)c1c(-c2ccc(F)cc2)oc2cc3c(cc12)[C@@H](C)CCCN3S(C)(=O)=O | 89 nM | 46 nM | – | –
20 | CNC(=O)c1c(-c2ccc(F)cc2)oc2cc3c(cc12)[C@@H](C)O[C@H](CS(C)(=O)=O)CN3S(C)(=O)=O | – | 24 nM | 100 nM | –
21 | CNC(=O)c1c(-c2ccc(F)cc2)oc2cc3c(cc12)[C@@H](C)OC1(CC1)CN3S(C)(=O)=O | – | 666 nM | > 2000 nM | –
22 | CS(=O)(=O)N1CCCCc2cc3c(C(N)=O)c(-c4ccc(F)cc4)oc3cc21 | > 2000 nM | – | – | –
23 | C=C1CCCN(S(C)(=O)=O)c2cc3oc(-c4ccc(F)cc4)c(C(=O)NC)c3cc21 | 106 nM | 26 nM | – | –
24 | CNC(=O)c1c(-c2ccc(F)cc2)oc2cc3c(cc12)C(C)OC(C)CN3S(C)(=O)=O (configuration not stated) | – | 8 nM | 33 nM | –
25 | CNC(=O)c1c(-c2ccc(F)cc2F)oc2cc3c(cc12)C(C)CCCN3S(C)(=O)=O (configuration not stated) | 15 nM | 8 nM | – | –
26 | CNC(=O)c1c(-c2ccc(F)cc2)oc2cc3c(cc12)[C@@H](C)OCCN3S(C)(=O)=O | 624 nM | 686 nM | – | –
27 | CN(O)C(=O)c1c(-c2ccc(F)cc2)oc2cc3c(cc12)CCCCN3S(C)(=O)=O | > 2000 nM | 298 nM | – | –
28 | CNC(=O)c1c(-c2ccc(F)cc2)oc2cc3c(cc12)C(C)CCCN3S(C)(=O)=O (configuration not stated) | 10 nM | 3 nM | – | –
29 | CNC(=O)c1c(-c2ccc(F)cc2)oc2cc3c(cc12)[C@@H](C)O[C@@H](CO)CN3S(C)(=O)=O | – | 1470 nM | – | –
30 | CS(=O)(=O)N1CCCCc2cc3c(-c4ncn[nH]4)c(-c4ccc(F)cc4)oc3cc21 | – | 850 nM | – | –
31 | CNC(=O)c1c(-c2ccc(F)cc2)oc2cc3c(cc12)[C@@H](C)O[C@H](CO)CN3S(C)(=O)=O | – | 69 nM | 554 nM | –
32 | CNC(=O)c1c(-c2ccc(F)cc2)oc2cc3c(cc12)C1CC1CCN3S(C)(=O)=O (configuration not stated) | 44 nM | 9 nM | 35 nM | –
33 | CNC(=O)c1c(-c2ccc(F)cc2)oc2cc3c(cc12)CCCCN3C(C)=O | > 2000 nM | – | > 2000 nM | –
34 | CNC(=O)c1c(-c2ccc(F)cc2)oc2cc3c(cc12)CCCCN3S(=O)(=O)C1CC1 | 423 nM | 73 nM | 335 nM | –
